The values below come from US9512420B2, “Use of N-acetylneuraminic acid aldolase in catalytic synthesis of N-acetylneuraminic acid” (Nanjing University of Technology, priority 2013, dated 2016).

One data set has as its target CgNal (Corynebacterium glutamicum, UniProt Q8NMD2). Put plainly: Effects of metal ions and surfactant on the CgNal activity. The data set is classed as biochemical, Corynebacterium glutamicum ATCC 13032. The following applies: for effect on reaction of CgNal in the decomposing Neu5Ac direction / effect on reaction of CgNal in the synthesizing Neu5Ac direction: pH 7.5; for effect on superiority of Neu5Ac synthesis over Neu5Ac decomposition / overall effect on CgNal enzyme activity: pH 8.5.

Substrate in data set [1]: CC(=O)C(=O)O
The data set is described as follows: purified protein, by the assay type. The following applies: substrate of CgNal, co-substrate fixed at 100 mM for ManNAc and pyruvic acid, 37.0 °C.

Substrate in data set [2]: CC(=O)N[C@@H]1C(O)O[C@H](CO)[C@@H](O)[C@@H]1O
The data set is described as follows: purified protein, by the assay type. The note with it: substrate of CgNal, co-substrate fixed at 100 mM for ManNAc and pyruvic acid, 37.0 °C.

Substrate in data set [3]: CC(=O)N[C@H]1[C@H]([C@H](O)[C@H](O)CO)OC(O)(C(=O)O)C[C@@H]1O
Put plainly: purified protein, by the assay type. The note with it: substrate of CgNal, co-substrate fixed at 100 mM for ManNAc and pyruvic acid, 37.0 °C.

Take `CCCCCCCCCCCCOS(=O)(=O)[O-].[Na+]` [SDS]: on CgNal (5 mM additive), the “effect on reaction of CgNal in the decomposing Neu5Ac direction” value (shortened to “effect … in the decomposing Neu5Ac direction”) is on record as “inhibited”, the “effect on reaction of CgNal in the synthesizing Neu5Ac direction” value is “promoted”, the “effect on superiority of Neu5Ac synthesis over Neu5Ac decomposition” value is given as “promoted” and the “overall effect on CgNal enzyme activity” value was “decreased the enzyme activity”.
For the molecule ZnCl2, on CgNal, the “effect … in the decomposing Neu5Ac direction” value is “inhibited”, the “effect on reaction of CgNal in the synthesizing Neu5Ac direction” value is “promoted”, the “effect on superiority of Neu5Ac synthesis over Neu5Ac decomposition” value is “promoted” and the “overall effect on CgNal enzyme activity” value was “decreased the enzyme activity”.
Take `CCCCCCCCCCCCCCCC[N+](C)(C)C.[Br-]` [CTAB]: on CgNal, the “effect … in the decomposing Neu5Ac direction” value is reported as “inhibited” and the “overall effect on CgNal enzyme activity” value was “decreased the enzyme activity”.
As for CoCl2, at CgNal, the “effect … in the decomposing Neu5Ac direction” value was “inhibited” and the “effect on reaction of CgNal in the synthesizing Neu5Ac direction” value was “promoted”.
As for NiSO4, on CgNal, the “effect … in the decomposing Neu5Ac direction” value is listed as “inhibited” and the “effect on reaction of CgNal in the synthesizing Neu5Ac direction” value was “promoted”.

B1: CgNal (Corynebacterium glutamicum ATCC 13032) (protein)
chain: MASATFTGVIPPVMTPLHADGSVDVESLRKLVDHLINGGVDGLFALGSSGEAAFLTRAQRKLALTTIIEHTAGRVPVTAGVIETTTARVIELVEDALEAGAEGLVATAPFYTRTHDVEIEEHFRKIHAAAPELPLFAYNIPVSVHSNLNPVMLLTLAKDGVLAGTKDSSGNDGAIRSLIEARDDAGLTEQFKILTGSETTVDFAYLAGADGVVPGLGNVDPAAYAALAKLCLDGKWAEAAALQKRINHLFHIVFVGDTSHMSGSSAGLGGFKTALAHLGIIESNAMAVPHQSLSDEETARIHAIVDEFLYTA
What is called Km is the concentration of substrate that gives half-maximal velocity. Consider B1, for which the Km in data set [1] (other: pH 7.5, pH 7.5) was 14.7 mM; in data set [1] (other: pH 8.5, pH 8.5), 72.4 mM; in data set [2] (other: pH 7.5, pH 7.5) it was 53.3 mM; in data set [2] (other: pH 8.5, pH 8.5), 92.1 mM; in data set [3] (other: pH 7.5, pH 7.5) it was 33.5 mM; in data set [3] (other: pH 8.5, pH 8.5), 87.7 mM. The Vmax in data set [1] (other: pH 7.5, pH 7.5) was 10.98 U/mg; in data set [1] (other: pH 8.5, pH 8.5) it was 76.64 U/mg; in data set [2] (other: pH 7.5, pH 7.5), 10.2 U/mg; in data set [2] (other: pH 8.5, pH 8.5) it was 73.2 U/mg; in data set [3] (other: pH 7.5, pH 7.5) it was 16.74 U/mg; in data set [3] (other: pH 8.5, pH 8.5), 79.6 U/mg.
